{"source": "patent US20230357154A1", "about": "(priority 2019, published 2023)", "key": {"[1]": {"settings": "mouse, in vivo; for CA (pooled): BChE-KO, 5XFAD-BChE-KO (pooled)"}, "[2]": {"assay_type": "in vivo", "settings": "5XFAD mouse, IV, 3D SPECT"}}, "note": "Like-named read-outs stand apart in the source and are kept apart here."}
{"smiles": "COc1cccc(C(=O)OCc2ccc(I)cc2)n1", "note": "[TRV7019, (p-iodophenyl)methyl 6-methoxy-2-pyridinecarboxylate]", "values": [{"measurement": "time of peak radioligand uptake in brain", "setting": "[1]; 5XFAD and WT", "result": 1, "unit": "minutes post-injection"}, {"measurement": "decrease in kclearance", "setting": "[1]; 5XFAD compared to WT", "result": 58, "unit": "%"}, {"measurement": "increase in t1/2clearance", "setting": "[1]; 5XFAD compared to WT", "result": 82, "unit": "%"}, {"measurement": "CA (pooled)", "setting": "[1]; 5XFAD, WT", "result": "56.1 ± 3.5", "unit": "% Cmax"}, {"measurement": "t1/2 clearance", "setting": "[1]; 5XFAD", "result": "3.22 ± 0.55", "unit": "min"}, {"measurement": "t1/2 clearance", "setting": "[1]; WT", "result": "1.77 ± 0.15", "unit": "min"}, {"measurement": "t1/2 clearance", "setting": "[1]", "result": "1.77 ± 0..15 min"}]}
{"smiles": "O=C(OCc1ccccc1)c1cccc(OCc2ccc(I)cc2)n1", "note": "[TRV7040, Benzyl 6-[(p-iodophenyl)methoxy]-2-pyridinecarboxylate]", "values": [{"measurement": "distribution of the tracer in vivo (extracranial)", "setting": "[2]", "result": "avid uptake of TRV7040 is seen in the eye and hardarian glands"}, {"measurement": "radioligand reaching the brain", "setting": "[2]", "result": "negligible radioligand reaching the brain"}, {"measurement": "ability to cross the blood-brain barrier / brain uptake", "setting": "[1]; iv, 60 min", "result": "inability of TRV7040 to cross the BBB and reach the brain"}]}
{"smiles": "O=C(OCc1ccc(I)cc1)c1cccc(=O)[nH]1", "note": "[TRV7005, (p-Iodophenyl)methyl 6-oxo-1H-pyridine-2-carboxylate]", "values": [{"measurement": "time of peak radioligand uptake in brain", "setting": "[1]; 5XFAD and WT (wild-type)", "result": 2, "unit": "minutes post-injection"}, {"measurement": "CA (pooled)", "setting": "[1]; 5XFAD, WT", "result": "45.4 ± 2.4", "unit": "% Cmax"}, {"measurement": "t1/2 clearance", "setting": "[1]; 5XFAD", "result": "6.51 ± 1.19", "unit": "min"}, {"measurement": "CA (asymptotic tracer concentration)", "setting": "[1]; 5XFAD-BChE-KO", "result": 42.8, "unit": "% Cmax"}, {"measurement": "t1/2 clearance", "setting": "[1]; WT", "result": "7.21 ± 1.75", "unit": "min"}, {"measurement": "kclearance (pooled)", "setting": "[1]", "result": "0.11 ± 0.02", "unit": "min⁻¹"}]}
{"smiles": "Cn1c(C(=O)OCc2ccc(I)cc2)cccc1=O", "note": "[TRV7006, (p-Iodophenyl)methyl 1-methyl-6-oxo-1H-pyridine-2-carboxylate]", "values": [{"measurement": "CA (pooled)", "setting": "[1]; 5XFAD, WT", "result": "51.6 ± 3.4", "unit": "% Cmax"}, {"measurement": "time of peak radioligand uptake in brain", "setting": "[1]; WT and BChE-KO", "result": 2, "unit": "minutes post-injection"}, {"measurement": "t1/2 clearance", "setting": "[1]; WT", "result": "4.72 ± 0.93", "unit": "min"}, {"measurement": "kclearance (pooled)", "setting": "[1]", "result": "0.17 ± 0.03", "unit": "min⁻¹"}]}
